Test results reported in patent US11084814B2, “Pyrido[3, 4-d]pyrimidine derivative and pharmaceutically acceptable salt thereof” (Teijin Pharma Limited, priority 2016, dated 2021).

Legend:
[1] = biological target: T1, CDK2/cyclin A2 (Homo sapiens, UniProt P24941); test: Human CDK2/cyclin A2 inhibitory activity (QS S Assist CDK2/Cyclin A2_FP Kit, IMAP fluorescent polarization); assay type: biochemical; conditions: read-out: CDK2 Activity symbol
T1 construct: purchased Carna Biosciences, Inc. QS S Assist CDK2/Cyclin A2_FP Kit
Summary of the method: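 Kit CDK2/cyclin A2 (2.5 ng/well) was reacted with kit ATP/substrate/metal in 20 mM HEPES pH 7.4, 0.01% Tween 20 and 2 mM DTT for 60 min at room temperature. IMAP binding reagent was added for 30 min, then fluorescence polarization was read at 485/535 nm. IC50 came from dose-response fitting of percent inhibition.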

[2] = biological target: T2, CDK4/cyclin D3 (Homo sapiens, UniProt P11802); test: Human CDK4/cyclin D3 inhibitory activity (QS S Assist CDK4/Cyclin D3_FP Kit, IMAP fluorescent polarization); assay type: biochemical; conditions: read-out: CDK4 Activity symbol
T2 construct: purchased Carna Biosciences, Inc. QS S Assist CDK4/Cyclin D3_FP Kit
T2 sequence (P11802 whole entry): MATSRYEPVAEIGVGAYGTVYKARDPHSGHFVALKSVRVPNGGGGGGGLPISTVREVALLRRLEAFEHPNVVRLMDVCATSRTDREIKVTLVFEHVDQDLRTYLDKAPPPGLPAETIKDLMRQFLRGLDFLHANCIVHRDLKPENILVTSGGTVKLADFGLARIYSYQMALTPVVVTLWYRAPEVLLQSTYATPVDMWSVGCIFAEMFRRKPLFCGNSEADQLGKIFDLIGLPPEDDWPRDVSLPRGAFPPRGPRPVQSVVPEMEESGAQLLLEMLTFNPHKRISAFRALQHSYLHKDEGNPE
T2 sequence (P30281 whole entry partner): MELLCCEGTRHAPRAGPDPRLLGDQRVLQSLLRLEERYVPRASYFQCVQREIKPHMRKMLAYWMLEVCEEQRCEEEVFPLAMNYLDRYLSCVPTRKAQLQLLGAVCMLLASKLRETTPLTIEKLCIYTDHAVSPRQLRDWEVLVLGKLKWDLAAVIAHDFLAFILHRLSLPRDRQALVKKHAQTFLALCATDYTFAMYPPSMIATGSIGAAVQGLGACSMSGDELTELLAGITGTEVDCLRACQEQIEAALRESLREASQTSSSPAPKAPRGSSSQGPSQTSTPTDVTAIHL
Summary of the method: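 Kinase reactions used kit CDK4/cyclin D3 at 12.5–25 ng/well with the kit ATP/substrate/metal mix in 20 mM HEPES (pH 7.4), 0.01% Tween20 and 2 mM DTT, run 45 min at room temperature. Phosphorylation was detected by IMAP fluorescence polarization (ex 485/em 535 nm) after 30 min binding in the dark. IC50 was fitted from percent inhibition against DMSO controls with and without enzyme.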

[3] = test system: neuronal death caused by local ischemia; conditions: rat cerebral infarction model; cited from earlier work

Structure (SMILES)	IC50 [1]	IC50 [2]	neuronal death [3]
C[C@@H](O)c1cc2cnc(Nc3ccc4c(n3)CCN(C(=O)Cn3nccn3)C4)nc2c(N2CCCCC2)n1 [Compound 337]	≥ 100 nM	10 to 100 nM	
CN1CC[C@H](c2c(O)cc(O)c3c(=O)cc(-c4ccccc4Cl)oc23)[C@H](O)C1 [flavopiridol]			reduced
